Assay results taken from US20250017910A1, “2-Thioxothiazolidine-4-One Derivatives And Their Uses” (Prosetta Biosciences, Inc., priority 2023, published 2025).

Molecular target: T1, alpha syn aggregates (Homo sapiens, UniProt P37840)
T1 construct: expressed in transfected cells; host or cells: NLF cells, Tet-on inducible expression
Assay: Assay for Methamphetamine Addiction: alpha syn aggregates in NLF cells with or without amphetamine
Format: cell-based
Settings: FIG. 1
From the text: FIG. 1 illustrates the average number of a syn aggregates per cell.
NLF cells were transfected with alpha synuclein behind a Tet-on promoter and induced to express alpha syn, resulting in the appearance of alpha syn aggregates. […] Aggregates were counted in ten randomly chosen fields and highest 3 in all conditions were quantified.

| SMILES | number of alpha syn aggregates (treatment with 0.5 mM amphetamine) | amphetamine mediated increase of alpha syn aggregates (0.5 mM amphetamine and 1 μM of compound) | number of alpha syn aggregates (treatment with 1 μM of compound) |
| --- | --- | --- | --- |
| CC(N)Cc1ccccc1 (stereo not drawn) [amphetamine, reference compound] | increased the number of aggregates |  |  |
| CN1CCN(c2ccc(-c3ccc(/C=C4\SC(=S)N(CCc5ccccc5)C4=O)o3)cc2)CC1 [Compound 13] |  | eliminated the amphetamine mediated increase of aggregates | reduced the number of aggregates |
